Experimental data reported in patent US20150031892A1, “SPHINGOLIPID METABOLITE MIMETICS” (Zhejiang University, priority 2012, published 2015).

B1: TRAIL: TNF-related apoptosis-inducing ligand, a death receptor ligand used as apoptosis-inducing agent (protein, UniProt P50591 1-281, looked up)
Tumor necrosis factor ligand …: MAMMEVQGGPSLGQTCVLIVIFTVLLQSLCVAVTYVYFTNELKQMQDKYSKSGIACFLKEDDSYWDPNDEESMNSPCWQVKWQLRQLVRKMILRTSEETISTVQEKQQNISPLVRERGPQRVAAHITGTRGRSNTLSSPNSKNEKALGRKINSWESSRSGHSFLSNLHLRNGELVIHEKGFYYIYSQTYFRFQEEIKENTKNDKQMVQYIYKYTSYPDPILLMKSARNSCWSKDAEYGLYSIYQGGIFELKENDRIFVSVTNEHLIDMDHEASFFGAFLVG

Legend:
Format in all cases: cell-based
[1] = tested on: HepG2; assay: MTT cytotoxicity assay, HepG2 (liver cancer); details: Homo sapiens
Description: (§1) Cell survival after exposure to the sphingolipid metabolite mimetics was examined by MTT cytotoxicity assay. HepG2, A431, HeLa, MCF-7 and SA cells (7000 cells/well) were seeded in each well of a 96-well plate for 24 h. New medium was added to give final concentrations of 0 to 200 μM of the sphingolipid metabolite mimetics. Then, 50 μl of 1 mg/ml 3-(4,5-dimethylthiazol-2-yl)-2,5-diphenyltetrazolium bromide (MTT, Sigma-Aldrich Chemical) was added to each well for 4 h incubation at 37° C. The purple formazan formed was then solubilized by DMSO and absorbance at 570 nm was read by a microplate reader (Molecular Devices, Sunnyvale, Calif.).

[2] = tested on: A431; assay: MTT cytotoxicity assay, A431 (squamous carcinoma); details: Homo sapiens, A-431
Description: as §1

[3] = tested on: SA; assay: MTT cytotoxicity assay, SA (pancreatic cancer as headed)
Description: as §1

[4] = tested on: MCF-7; assay: MTT cytotoxicity assay, MCF-7 (breast cancer); details: Homo sapiens, MCF7; Breast Cancer MCF-7, MTT
Description: as §1

[5] = tested on: SiHa; assay: MTT cytotoxicity assay, SiHa (ovarian cancer as headed); details: Homo sapiens, Cervical Cancer SiHa
[6] = tested on: SW620; assay: MTT cytotoxicity assay, SW620 (colon cancer); details: Homo sapiens, SW-620
[7] = tested on: SW480; assay: MTT cytotoxicity assay, SW480 (colon cancer); details: Homo sapiens
[8] = tested on: multiple types of cancer cells; assay: MTT cytotoxicity, statements over several cancer cell lines; details: for direct anti-cancer cell activity: summary statement
Description: as §1

[9] = tested on: SW620 cells; assay: Drug sensitivity MTT assay with TRAIL, SW620; set-up: scale not given here; details: for NZJU alone mean value (sensitivity, growth inhibition): drug alone (19-100 μM; TRAIL 100 ng/ml); for NZJU alone mean value (sensitivity, growth inhibition) / combine mean value (sensitivity, growth inhibition): 48 h; for Enhanced mean value: enhancement due to co-administration with TRAIL; for combine mean value (sensitivity, growth inhibition): mimetic at the dose of its row combined with TRAIL 100 ng/ml
Description: (§2) Cell survival after exposure to the anti-tumor agents was examined by MTT cytotoxicity assay. Cells were seeded in each well of a 96-well plate for 24 h. After incubation with various concentrations of compounds, TRAIL, or both for 48 h, the medium was discarded. Then, 50 μl of 1 mg/ml 3-(4,5-dimethylthiazol-2-yl)-2,5-diphenyltetrazolium bromide (MTT, Sigma-Aldrich Chemical) was added to each well for 4 h incubation at 37° C. The purple formazan formed was then solubilized by DMSO and absorbance at 570 nm was read by a microplate reader (Molecular Devices, Sunnyvale, Calif.).

[10] = tested on: MCF-7 cells; assay: Drug sensitivity MTT assay with TRAIL, MCF-7; set-up: scale not given here; details: for NZJU alone mean value (sensitivity, growth inhibition): drug alone (19-100 μM; TRAIL 100 ng/ml); for NZJU alone mean value (sensitivity, growth inhibition) / combine mean value (sensitivity, growth inhibition): 48 h; for Enhanced mean value: enhancement due to co-administration with TRAIL; for combine mean value (sensitivity, growth inhibition): mimetic at the dose of its row combined with TRAIL 100 ng/ml
Description: as §2

[11] = tested on: HELA cells; assay: Drug sensitivity MTT assay with TRAIL, HELA; set-up: scale not given here; details: for NZJU alone mean value (sensitivity, growth inhibition): drug alone (19-100 μM; TRAIL 100 ng/ml); for NZJU alone mean value (sensitivity, growth inhibition) / combine mean value (sensitivity, growth inhibition): 48 h; for Enhanced mean value: enhancement due to co-administration with TRAIL; for combine mean value (sensitivity, growth inhibition): mimetic at the dose of its row combined with TRAIL 100 ng/ml
Description: as §2

[12] = tested on: cancer cells (TRAIL resistance); assay: Sensitization of cancer cells to TRAIL-induced apoptosis, general statements; details: summary statement
Description: as §2

Molecule	IC50 [1]	IC50 [2]	IC50 [3]	IC50 [4]	IC50 [5]	IC50 [6]	IC50 [7]	direct anti-cancer cell activity [8]	NZJU alone mean value (sensitivity, growth inhibition) [9]	Enhanced mean value [9]	combine mean value (sensitivity, growth inhibition) [9]	NZJU alone mean value (sensitivity, growth inhibition) [10]	Enhanced mean value [10]	combine mean value (sensitivity, growth inhibition) [10]	NZJU alone mean value (sensitivity, growth inhibition) [11]	Enhanced mean value [11]	combine mean value (sensitivity, growth inhibition) [11]	TRAIL sensitization activity [12]	further results
CCCCCCCCCCCCNC(=O)[C@@H](NC(=O)c1nccc2ccccc12)[C@@H](C)O [NZJU30, N-((2S,3R)-3-hydroxy-1-oxo-1-(dodecylamino)butan-2-yl)-isoquinoline-1-carboxamide]	65.7 ± 2.63 µM	62.8 ± 7.56 µM	51.93 ± 0.42 µM	50.5 ± 5.65 µM	56.6 ± 4.91 µM	65.8 ± 4.14 µM	58.8 µM	direct anti-cancer cell activity	−0.038	0.375	0.493	0.002	0.157	0.274	0.057	0.075	0.195	TRAIL sensitization activity	NZJU alone mean value (sensitivity, growth inhibition) ([9]; listed as NZJU2f): very little sensitivity
CCCCCCCCCCCCCCNC(=O)[C@@H](NC(=O)c1cccs1)[C@@H](C)O [NZJU34, N-((2S,3R)-3-hydroxy-1-oxo-1-(tetradecylamino)butan-2-yl)-2-thiophene carboxamide]	88.4 ± 15.5 µM	26.4 ± 4.03 µM	21.2 ± 3.78 µM	36.07 ± 0.27 µM	63 ± 0.25 µM	78.4 ± 11.1 µM	70.3 µM	direct anti-cancer cell activity	0.315	0.275	0.664	0.444	0.263	0.759	0.334	0.375	0.744	TRAIL sensitization activity	–
C/C=C/C=C/C(=O)N[C@H](C(=O)NCCCCCCCC)[C@@H](C)O [NZJU41, (2E,4E)-N-((2S,3R)-3-hydroxy-1-oxo-1-(octylamino)butan-2-yl)-2,4-hexadienoic acid amide]	102 ± 4.07 µM	58.24 ± 0.11 µM	40.4 ± 2.16 µM	149 ± 3.24 µM	123 ± 2.5 µM	≥ 200 µM	158 µM	direct anti-cancer cell activity	0.551	0.169	0.790	0.347	0.113	0.625	0.362	0.421	0.819	TRAIL sensitization activity	–
CCCCCCCCCCCCCCNC(=O)[C@@H](NC(=O)c1nccc2ccccc12)[C@@H](C)O [NZJU31, N-((2S,3R)-3-hydroxy-1-oxo-1-(tetradecylamino)butan-2-yl)-isoquinoline-1-carboxamide]	28.6 ± 3.77 µM	23 ± 3.72 µM	24.4 ± 3.6 µM	22.8 ± 3.94 µM	21.6 ± 2.26 µM	30.4 ± 2.09 µM	23.6 µM	–	–	–	–	–	–	–	–	–	–	–	IC50 ([8]; all five cell lines tested, read-out: IC50 values): < 30 µM
CCCCCCCCNC(=O)[C@@H](NC(=O)c1cccs1)[C@@H](C)O [NZJU44, N-((2S,3R)-3-hydroxy-1-oxo-1-(octylamino)butan-2-yl)-2-thiophene carboxamide]	149 ± 8.7 µM	32.1 ± 4.6 µM	60.9 ± 4.29 µM	72.5 ± 3.37 µM	91.85 ± 0.59 µM	136 ± 42.6 µM	–	direct anti-cancer cell activity	0.563	0.128	0.853	0.625	0.042	0.717	0.218	0.357	0.315	TRAIL sensitization activity	NZJU alone mean value (sensitivity, growth inhibition) ([10]; listed as NZJU1g): efficient at killing MCF-7 cells
CCCCCCCCCCCCCCCCCCNC(=O)[C@@H](NC(=O)Cc1c[nH]c2ccccc12)[C@@H](C)O [NZJU29, N-((2S,3R)-3-hydroxy-1-oxo-1-(octadecylamino)butan-2-yl)-indole-3-acetic acid amide]	57.6 ± 2.69 µM	31.8 ± 1.93 µM	54.9 ± 3.9 µM	37.3 ± 1.82 µM	65.8 ± 6.45 µM	103 ± 7.48 µM	60 µM	direct anti-cancer cell activity	–	–	–	–	–	–	–	–	–	–	–
CCCCCCCCCCCCNC(=O)[C@@H](NC(=O)c1ccccc1)[C@@H](C)O [NZJU16, N-((2S,3R)-3-hydroxy-1-oxo-1-(dodecylamino)butan-2-yl)-benzamide]	> 400 µM	41.2 ± 0.69 µM	75.5 ± 6.24 µM	36.6 ± 8.86 µM	63.9 ± 6.01 µM	≥ 200 µM	67.2 ± 7.42 µM	direct anti-cancer cell activity	0.376	0.304	0.607	0.479	0.197	0.741	0.264	0.298	0.597	TRAIL sensitization activity	–
CCCCCCCCCCCCCCCCCCNC(=O)[C@@H](NC(=O)/C=C/c1ccccc1)[C@@H](C)O [NZJU26, (E)-N-((2S,3R)-3-hydroxy-1-oxo-1-(octadecylamino)butan-2-yl)-3-phenyl acrylic acid amide]	128 ± 9.04 µM	177 ± 7.17 µM	47.1 ± 0.54 µM	39.2 ± 2.21 µM	35.9 ± 2.64 µM	≥ 200 µM	123 µM	direct anti-cancer cell activity	–	–	–	–	–	–	–	–	–	–	–
CCCCCCCCNC(=O)[C@@H](NC(=O)c1cc2ccccc2o1)[C@@H](C)O [NZJU45, N-((2S,3R)-3-hydroxy-1-oxo-1-(octylamino)butan-2-yl)-benzofuran-2-carboxamide]	81.3 ± 9.13 µM	52.7 ± 3.82 µM	40.8 ± 3.63 µM	47.2 ± 7.3 µM	66.5 ± 2.5 µM	≥ 200 µM	–	direct anti-cancer cell activity	0.205	0.309	0.516	0.021	0.382	0.538	0.173	0.223	0.432	TRAIL sensitization activity	–
B1	–	–	–	–	–	–	–	–	–	–	–	0.118	–	–	0.036	–	–	–	–
